These results are taken from PubChem BioAssay (NCI).

What is called TGI is the concentration giving total growth inhibition. Read a high TGI as less potent growth arrest. The GI50 is the concentration that inhibits growth by half.

Among the test systems are SNB-78 CNS; M19-MEL melanoma; CCRF-CEM leukemia; HOP-92 NSCLC; NCI-H23 lung; SW-620 colon; UACC-257 melanoma; A549 NSCLC; SF-295 CNS; PC-3 prostate.
Holding throughout (test): DTP human tumour cell line panel, 48 h

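96-well plates; 48 h exposure; 5 concentrations. Endpoints by linear interpolation between flanking doses. Not reached: highest tested concentration assigned. Here, GI50 denotes the concentration required for 50% inhibition of growth. TGI: total growth inhibition.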

Turning to `CC(=O)OC1CC2C(C)(C)C(=O)C=C[C@]2(C)C2CCC3(C)C(c4ccoc4)C(=O)[C@H]4O[C@]43[C@]12C` (some centres undefined), the TGI in the test with SNB-78 CNS is > 100 µM; in the test on M19-MEL melanoma, 55.2 µM; in the test with CCRF-CEM leukemia, 62.3 µM; in the test on HOP-92 NSCLC, 34.4 µM; with NCI-H23 lung, 50.4 µM; in the test on SW-620 colon, 59.2 µM.
Take `O=C1C[C@@H]2C(COC(=O)c3ccccc3)N(OCc3ccccc3)C[C@@H]2O1` (some centres undefined): the TGI in the test with SNB-78 CNS, in the test with UACC-257 melanoma, in the test on M19-MEL melanoma, in the test on CCRF-CEM leukemia, in the test on NCI-H23 lung and with SW-620 colon was > 100 µM throughout. For the same compound, the TGI with A549 NSCLC was > 100 µM.
Take `Cc1ccc(S(=O)(=O)NC(=O)NC23CC4CC(CC(F)(C4)C2)C3)cc1`: the TGI in the test on SNB-78 CNS, in the test on UACC-257 melanoma, in the test with M19-MEL melanoma, with CCRF-CEM leukemia, in the test with HOP-92 NSCLC and in the test with NCI-H23 lung was > 100 µM in each case. The TGI with SW-620 colon and in the test with A549 NSCLC was > 100 µM throughout.
Take `CC1(C)OC(=O)C=C([O-])O1.CC1(C)OC(=O)C=C([O-])O1.O=S(=O)([O-])c1ccc([O-])c2ncccc12.O=S(=O)([O-])c1ccc([O-])c2ncccc12.[Ti+4]`: the GI50 with SNB-78 CNS was > 100 µM; in the test with UACC-257 melanoma, > 100 µM; in the test with M19-MEL melanoma, > 100 µM; with CCRF-CEM leukemia it was 69.8 µM; in the test on NCI-H23 lung, > 100 µM; with SW-620 colon, > 100 µM. Further, the values for the GI50 with SF-295 CNS and in the test on A549 NSCLC were > 100 µM and 48.6 µM, respectively. The TGI with SNB-78 CNS, in the test with UACC-257 melanoma, in the test with M19-MEL melanoma, in the test with CCRF-CEM leukemia, in the test on NCI-H23 lung and with SW-620 colon was > 100 µM in each case. The TGI in the test on SF-295 CNS and with A549 NSCLC was > 100 µM throughout.
On to `CCC(=O)C(C)C1=Nc2nnc(CCCCCCCc3nnc4n3C(=O)C(C(C)C(=O)CC)=N4)n2C1=O` (centres undefined), for which the TGI in the test on UACC-257 melanoma, in the test with M19-MEL melanoma, in the test with CCRF-CEM leukemia, in the test on HOP-92 NSCLC, in the test on NCI-H23 lung and in the test with SW-620 colon was > 100 µM in each case. The concentration for total growth inhibition (TGI) with SF-295 CNS and in the test with A549 NSCLC was > 100 µM in each case.
For the compound `CN1NC2(CCCCC2)ON=C1c1ccccc1`, the TGI in the test on SNB-78 CNS, in the test on UACC-257 melanoma, in the test on CCRF-CEM leukemia, with HOP-92 NSCLC, in the test on NCI-H23 lung and in the test on SW-620 colon was > 100 µM each time. For the same compound, the total growth inhibition concentration (TGI) in the test with SF-295 CNS and with A549 NSCLC was > 100 µM throughout.
As to `C(CCC[Te][Te]CCCCCCOC1CCCCO1)CCOC1CCCCO1` (centres undefined), the TGI was 38.1 µM in the test with SNB-78 CNS; 20.7 µM in the test on UACC-257 melanoma; 41.4 µM in the test with CCRF-CEM leukemia; 30.5 µM in the test on HOP-92 NSCLC; 31.1 µM in the test on NCI-H23 lung; 45.2 µM in the test with SW-620 colon. The TGI was 32.1 µM in the test on SF-295 CNS and 41.5 µM in the test with A549 NSCLC.
Turning to `CC(=O)OCCOCNC(=S)N/N=C(\C)c1cnc2ccccc2n1`, the TGI in the test on SNB-78 CNS was > 100 µM; in the test on UACC-257 melanoma, > 100 µM; with M19-MEL melanoma it was 77.1 µM; in the test on CCRF-CEM leukemia it was 90.2 µM; in the test with NCI-H23 lung, > 100 µM; in the test with SW-620 colon, > 100 µM. Besides, the TGI in the test with SF-295 CNS and in the test with A549 NSCLC was > 100 µM in each case.
`COc1ccc(C(N)=O)cc1N=NN(C)C`: the TGI in the test with UACC-257 melanoma, with M19-MEL melanoma, with CCRF-CEM leukemia, in the test with HOP-92 NSCLC, in the test with NCI-H23 lung and with SW-620 colon was > 100 µM in each case. Besides, the TGI in the test on SF-295 CNS and in the test with A549 NSCLC was > 100 µM in each case.
Turning to `CN(CN1C(=O)C2Cc3ccccc3CN2C1=O)c1ccccn1` (centres undefined), the concentration for total growth inhibition (TGI) in the test with M19-MEL melanoma, in the test on CCRF-CEM leukemia, in the test on NCI-H23 lung, with SW-620 colon, with SF-295 CNS and in the test on A549 NSCLC was > 100 µM each time.
`CC(C)c1ccc(C(=O)Nc2sc3c(c2C#N)CCC(=O)C3)cc1`: the GI50 was 1.73 µM with UACC-257 melanoma; 0.189 µM in the test on CCRF-CEM leukemia; 0.607 µM with HOP-92 NSCLC; 0.32 µM in the test with NCI-H23 lung; 0.266 µM in the test on SW-620 colon; 1.36 µM in the test on SF-295 CNS. Besides, the GI50 was 1.63 µM in the test on A549 NSCLC and 0.263 µM in the test on PC-3 prostate. Besides, the TGI with UACC-257 melanoma was 6.05 µM; in the test with CCRF-CEM leukemia, > 100 µM; in the test with HOP-92 NSCLC, 2.4 µM; with NCI-H23 lung, 9.57 µM; in the test with SW-620 colon it was 1.67 µM; in the test on SF-295 CNS, > 28.1 µM. Moreover, the figures for the TGI with A549 NSCLC and in the test with PC-3 prostate were > 100 µM and > 23.7 µM, respectively.
Consider `Cn1c(=O)nc2n(-c3cccc(F)c3)c3ccccc3nc-2c1=O`, for which the TGI in the test with SNB-78 CNS is 68.4 µM; with UACC-257 melanoma, 28.1 µM; in the test on M19-MEL melanoma it was 5.3 µM; with CCRF-CEM leukemia, 56.7 µM; in the test on NCI-H23 lung, 35.2 µM; with SW-620 colon, 26.4 µM. Moreover, the TGI with SF-295 CNS is > 100 µM; with A549 NSCLC, 53.5 µM.
For `COC(=O)c1c2c(c(C)[n+]([O-])c1C)C(=O)C=C(NCc1ccc(F)c(F)c1)C2=O`, the GI50 in the test on UACC-257 melanoma was 0.225 µM; with CCRF-CEM leukemia it was 0.409 µM; in the test on HOP-92 NSCLC, 1.56 µM; in the test on NCI-H23 lung, 0.498 µM; in the test with SW-620 colon, 0.254 µM; in the test on SF-295 CNS, 0.437 µM. The GI50 in the test with A549 NSCLC was 0.48 µM; in the test on PC-3 prostate, 0.279 µM. In addition, the concentration for total growth inhibition (TGI) in the test on UACC-257 melanoma amounted to 0.657 µM; with CCRF-CEM leukemia, 2.47 µM; with HOP-92 NSCLC it was 3.61 µM; in the test on NCI-H23 lung it was 2.59 µM; in the test with SW-620 colon, 1.36 µM; with SF-295 CNS, 1.59 µM. Besides, the TGI with A549 NSCLC worked out at 2.2 µM; in the test on PC-3 prostate it was 2.42 µM.
Regarding `O=C(NCCCNc1cc(-c2cn(-c3ccccc3)nc2-c2cccc(O)c2)ccn1)c1ccccc1`, the GI50 with UACC-257 melanoma is 2.07 µM; with CCRF-CEM leukemia it was 3.14 µM; with HOP-92 NSCLC it was 1.7 µM; with NCI-H23 lung it was 3.04 µM; with SW-620 colon it was 2.36 µM; with SF-295 CNS, 1.76 µM. Further, the GI50 is 4.62 µM in the test on A549 NSCLC and 2.1 µM in the test with PC-3 prostate. In addition, the TGI with UACC-257 melanoma turned out to be 4.4 µM; in the test with CCRF-CEM leukemia, 54.7 µM; with HOP-92 NSCLC, 24.5 µM; in the test with NCI-H23 lung, 26.6 µM; in the test on SW-620 colon, 6.15 µM; in the test on SF-295 CNS it was 4.81 µM. Further, the values for the TGI in the test on A549 NSCLC and with PC-3 prostate were 34.4 µM and 15.2 µM, respectively.
